Test results reported in patent US9156860B2, “Boron-containing small molecules” (Anacor Pharmaceuticals, Inc., priority 2011, dated 2015).

Tests used:
[1] = test system: Dermacentor variabilis tick nymphs; test: Efficacy against nymphal-stage American dog ticks on rats; assay type: in vivo
Procedure: Evaluations were conducted using a modified version of the assay as described in Gutierrez et al., J. Med. Entomol. 43(3): 526-532 (2006). This assay may be modified by simply using different tick species (the reference describes Amblyomma americanum ticks), such as Dermacentor variabilis or Rhipicephalus sanguineus ticks, as well as different life-stages (larval, nymphal or adult). Further, the reference describes using topical application methods, but oral, transdermal and subcutaneous injection routes of administration may be used.
In these studies, adult male or female rats, approximately 300 grams in size, were randomly assigned to a treatment group or a control (untreated negative control or fipronil positive control) group. Each group consisted of three (3) to five (5) rats. […] On Day 2, approximately forty-eight (48) hours after treatment, live and dead ticks were removed from animals and counted.
Live tick counts were transformed using the natural logarithm transformation plus one (Ln count+1); addition of one to each count served to adjust for counts that were zero. […] GM percent efficacy of treatments was calculated using the following formula:
Enantiomers were evaluated for activity against American dog tick (Dermacentor variabilis) nymphs on rats. […] On Day 2, approximately forty-eight (48) hours after treatment, live and dead ticks were removed from animals and counted. […]

[2] = test system: cat flea (Ctenocephalides felis); test: Example 9: efficacy against cat flea infestations on dogs; assay type: in vivo; conditions: 50 mg/kg oral, Day 32
Procedure: (§1) The therapeutic (knockdown) and residual efficacy of 17, administered orally at a point dose of 50 mg/kg bodyweight, was evaluated against adult tick (Dermacentor variabilis and Rhipicephalus sanguineus) and adult cat flea (Ctenocephalides felis) infestations on dogs. Eight (8) male and female beagle dogs were allocated to either an untreated, negative control group or 17 group (n=4 dogs per group). Dogs were infested with approximately 50 unfed, adult D. variabilis ticks on Days −1, 5, 12, 19, and 28. On Day 0, dogs were orally administered gelatin capsules containing 17 (50% technical active, 47% microcrystalline cellulose and 3% croscarmellose sodium, w/w) at a point dose of 50 mg/kg. D. variabilis tick counts and classification were conducted on Day 1 (thumb count, approximately 24 hours after treatment) and Days 2, 7, 14, 21 and 30 (approximately 48 hours after treatment). Following removal of D. variabilis ticks on Day 30, all dogs were co-infested with approximately 50 unfed, adult brown dog ticks (R. sanguineus) and approximately 100 unfed, adult cat fleas (C. felis). Brown dog tick and cat flea counts were conducted on Day 32 (approximately 48 hours after infestation). GM percent efficacy of treatments against both tick species and fleas was calculated using the following formula: […]

[3] = test system: brown dog tick (Rhipicephalus sanguineus); test: Example 9: efficacy against brown dog tick infestations on dogs; assay type: in vivo; conditions: 50 mg/kg oral, Day 32
Procedure: as §1

[4] = test system: adult American dog tick (Dermacentor variabilis); test: Example 9: efficacy against adult American dog tick infestations on dogs; assay type: in vivo; conditions: 50 mg/kg oral
Procedure: as §1

[5] = test system: Lone star tick larvae (Amblyomma americanum); test: Larval immersion microassay against larval-stage Lone star ticks; conditions: for mortality at 300 µM: Amblyomma americanum, 24 h, read-out: activity (percent larval mortality)
Procedure: The larval immersion microassay was conducted as described in detail in White, et al., J. Med. Entomol. […] Compounds of the invention were formulated in dimethylsulfoxide (DMSO) to prepare a stock solution at a concentration of at least 10 mM. […] Approximately 30-50 Lone star tick larvae (Amblyomma americanum) were submerged into each well containing compounds. After a 30 minute immersion period, larvae were removed with a wide-bore pipette tip in 0.05 ml of fluid, dispensed into a commercial paper tissue biopsy bag which was sealed at the top with a plastic dialysis clip, inverted and allowed to air dry for 60 minutes. Bags containing larvae were then incubated at approximately 27 degrees Celsius and >90% relative humidity. After 24 hours, bags were opened, live and dead larvae were counted and percent larval mortality was calculated.
7 contains one chiral center, and is therefore a racemic mixture comprised of approximately 50% R- and 50% S-enantiomer. In vitro and surrogate animal (rat) studies were conducted to evaluate the biological activity of the R- and S-enantiomers of 7. For the in vitro study, larvae of the Lone star tick (Amblyomma americanum) were exposed to 17 (S-enantiomer) and 18 (R-enantiomer) using the larval immersion microassay at a concentration of no greater than 0.3 mM. Following exposure, larvae were removed, transferred to a tissue biopsy bag and incubated at approximately 27 degrees Celsius and >90% relative humidity. After 24 hours, biopsy bags were opened and the numbers of live and dead larvae were determined.

[6] = Clinical signs / tolerability in rats; assay type: in vivo; conditions: oral ≦5 mg/kg, Example 8
[7] = Tolerability of oral treatment in dogs; assay type: in vivo, beagle dogs
Procedure: The therapeutic (knockdown) and residual efficacy of 7, administered orally at a point dosages of 5 and 25 mg/kg bodyweight, was evaluated against adult American dog tick (D. variabilis) and cat flea (C. felis) infestations on dogs. Sixteen (16) male and female beagle dogs were allocated to one of four treatment groups: Untreated control group (n=4 dogs); 7, 5 mg/kg liquid oral dosage form (n=4 dogs); 7, 25 mg/kg liquid oral dosage form (n=4 dogs); and 7, 25 mg/kg solid oral dosage form. Liquid dosage forms were prepared by dissolving 7 in a solution of 55% polyethylene glycol-300, 35% propylene glycol and 10% water at 25 mg/ml. Solid oral dosage form was prepared by thoroughly mixing 7 with microcrystalline cellulose and croscarmellose sodium (50:47:3, w/w) and placing into size 00 gelatin capsules. On Day 0, all dogs were orally administered 7 at the prescribed point dosages. Twenty-four (24) hours before treatment (Day −1), all dogs were infested with approximately 50 unfed, adult-stage American dog ticks (D. variabilis; approximately 50% male and 50% female). On Day 2, approximately 48 hours after treatment, ticks were removed and counts were conducted to determine the number and life-status classification of ticks present on all dogs (normal, moribund or dead; attached or detached). For all groups, dogs were re-infested with approximately 50 unfed, adult D. variabilis ticks on Days 5 and 12, with tick classification, counts and removal on Days 7 and 14 (approximately 48 hours after each infestation). For negative control and 7 (25 mg/kg solid oral dosage form) groups, dogs were re-infested with approximately 50 unfed, adult D. variabilis ticks on Days 19 and 28, with tick classification, counts and removal on Days 21 and 30. Immediately following removal of ticks on Day 30, dogs in the negative control and 7 (25 mg/kg solid oral dosage form) groups were infested with approximately 100 unfed, adult cat fleas (C. felis). Flea counts were conducted approximately 48 hours later, on Day 32.
(§2) The therapeutic (knockdown) and residual efficacy of 7 and 8, each administered orally at a point dose of either 25 mg/kg or 50 mg/kg bodyweight, was evaluated against adult tick (Dermacentor variabilis and Rhipicephalus sanguineus) infestations on dogs. Twenty (20) male and female beagle dogs were allocated to one of five treatment groups, four (4) dogs per group: Untreated control; 7, 25 mg/kg; 7, 50 mg/kg; 8, 25 mg/kg; and 8, 50 mg/kg. On Day −1, all dogs were infested with approximately 50 unfed, adult D. variabilis ticks. On Day 0, dogs were orally administered gelatin capsules containing either 7 or 8 (50% technical active, 47% microcrystalline cellulose and 3% croscarmellose sodium, w/w) so as to achieve the desired point dosages. Ticks were counted and classified on all dogs, but not removed, on Day 1 (approximately 24 hours after treatment). On Day 2, approximately 48 hours after treatment, ticks were counted, classified and removed. Dogs were re-infested with the same number of D. variabilis ticks on Days 5, 12 and 19 with corresponding 48 hour post-infestation tick counts on Days 7, 14 and 21. Dogs were infested with approximately 50 unfed, adult brown dog ticks (Rhipicephalus sanguineus; approximately 50% male and 50% female) on Days 15 and 28, with corresponding 48 hour post-infestation tick counts on Days 17 and 30. GM percent efficacy of treatments against both tick species was calculated using the following formula: […]
The efficacy of 7, administered orally at a point dose of 25 mg/kg bodyweight, was evaluated against adult tick (Dermacentor variabilis) infestations. Twelve (12) male and female beagle dogs were allocated to three treatment groups: Untreated, negative control A; 7 group B; and 7 group C (n=4 dogs per group). Dogs were infested with approximately 50 unfed, adult D. variabilis ticks on Days −1, 5, 12, 19 and 28. […]

[8] = test system: adult American dog tick (Dermacentor variabilis); test: Example 5: efficacy against adult American dog tick infestations on dogs; assay type: in vivo
Procedure: as §2

[9] = test system: brown dog tick (Rhipicephalus sanguineus); test: Example 5: efficacy against brown dog tick infestations on dogs; assay type: in vivo
Procedure: as §2

Structure (SMILES): N#Cc1nn(-c2c(Cl)cc(C(F)(F)F)cc2Cl)c(N)c1[S+]([O-])C(F)(F)F (stereo not shown) [Fipronil, reference compound]
- efficacy (% reduction in live tick counts) ([1]; positive control, oral 10 mg/kg bodyweight, all studies): > 95%

Structure (SMILES): CC1(C)OB(O)c2ccc(C3=NO[C@@](c4cc(Cl)c(Cl)c(Cl)c4)(C(F)(F)F)C3)cc21 [Compound 17, (S)-3,3-Dimethyl-5-(5-(3,4,5-trichlorophenyl)-5-(trifluoromethyl)-4,5-dihydroisoxazol-3-yl)benzo[c][1,2]oxaborol-1(3H)-ol]
- Geometric mean group live flea count [2]: 0.0
- Geometric mean group live tick count [3]: 1.9
- Geometric mean group live tick count ([4]; Day 1): 0.7
- Geometric mean group live tick count ([4]; Day 2): 0.0
- % efficacy ([4]; Day 7): (100) %
- Geometric mean group live tick count ([4]; Day 7): 0.0
- % efficacy ([4]; Day 14): (96.7) %
- Geometric mean group live tick count ([4]; Day 14): 1.2
- % efficacy ([4]; Day 21): (100) %
- Geometric mean group live tick count ([4]; Day 21): 0.0
- Geometric mean group live tick count ([4]; Day 30): 1.9
- residual efficacy ([4]; through Day 21): 97-100%
- mortality at 300 µM [5]: ≥ 80%
- tolerability [6]: well tolerated
- tolerability ([7]; oral 50 mg/kg, Example 9): well tolerated

Structure (SMILES): CC1(C)OB(O)c2ccc(C3=NO[C@](c4cc(Cl)c(Cl)c(Cl)c4)(C(F)(F)F)C3)cc21 [Compound 18, (R)-3,3-Dimethyl-5-(5-(3,4,5-trichlorophenyl)-5-(trifluoromethyl)-4,5-dihydroisoxazol-3-yl)benzo[c][1,2]oxaborol-1(3H)-ol]
- In vitro activity at 0.3 mM ([5]; 0.3 mM, A. americanum larvae, counted after 24 hours): 0.0%
- tolerability [6]: well tolerated
- % Efficacy at Dose of ≦5 mg/kg ([1]; oral point doses of ≦5 mg/kg, D. variabilis nymphs, 48 hours after treatment, 5 mg/kg): 10.7%

Structure (SMILES): CC1(C)OB(O)c2ccc(C3=NOC(c4cc(Cl)c(F)c(Cl)c4)(C(F)(F)F)C3)cc21 (stereo not shown) [Compound 8, 5-(5-(3,5-dichloro-4-fluorophenyl)-5-(trifluoromethyl)-4,5-dihydroisoxazol-3-yl)-3,3-dimethyl-benzo[c][1,2]oxaborol-1(3H)-ol]
- % efficacy ([8]; 25 mg/kg oral capsule, Day 1): (81.0) %
- Geometric mean group live tick count ([8]; 25 mg/kg oral capsule, Day 1): 2.0
- Geometric mean group live tick count ([8]; 25 mg/kg oral capsule, Day 2): 0.0
- Geometric mean group live tick count ([8]; 25 mg/kg oral capsule, Day 7): 1.5
- % efficacy ([8]; 25 mg/kg oral capsule, Day 14): (85.0) %
- Geometric mean group live tick count ([8]; 25 mg/kg oral capsule, Day 14): 2.5
- % efficacy ([8]; 25 mg/kg oral capsule, Day 21): (79.3) %
- Geometric mean group live tick count ([8]; 25 mg/kg oral capsule, Day 21): 3.4
- % efficacy ([8]; 50 mg/kg oral capsule, Day 1): (80.9) %
- Geometric mean group live tick count ([8]; 50 mg/kg oral capsule, Day 1): 2.0
- Geometric mean group live tick count ([8]; 50 mg/kg oral capsule, Day 2): 0.0
- Geometric mean group live tick count ([8]; 50 mg/kg oral capsule, Day 7): 0.6
- % efficacy ([8]; 50 mg/kg oral capsule, Day 14): (80.4) %
- Geometric mean group live tick count ([8]; 50 mg/kg oral capsule, Day 14): 3.2
- % efficacy ([8]; 50 mg/kg oral capsule, Day 21): (75.1) %
- Geometric mean group live tick count ([8]; 50 mg/kg oral capsule, Day 21): 4.0
- mortality at 300 µM [5]: ≥ 80%
- % efficacy ([9]; 25 mg/kg oral capsule, Day 17): (73.4) %
- Geometric mean group live tick count ([9]; 25 mg/kg oral capsule, Day 17): 7.2
- % efficacy ([9]; 50 mg/kg oral capsule, Day 17): (80.2) %
- Geometric mean group live tick count ([9]; 50 mg/kg oral capsule, Day 17): 5.4
- % efficacy ([9]; 50 mg/kg oral capsule, Day 30): (42.1) %
- Geometric mean group live tick count ([9]; 50 mg/kg oral capsule, Day 30): 21.5
- tolerability ([7]; oral 25 or 50 mg/kg, Example 5): well tolerated
